Experimental data from paper PMC10384408, “Anticancer Tungstenocenes with a Diverse Set of (O,O–), (O,S–) and (O,N–) Chelates—A Detailed Biological Study Using an Improved Evaluation via 3D Spheroid Models” (Pharmaceutics, 2023).
Like-named read-outs stand apart in the source and are kept apart here.

Experiments:
[1] = tested on: SW480 (colon carcinoma) cells; conditions: MTT assay, 96 h; cited from earlier work
[2] = tested on: IMR-90 human lung fibroblasts; assay: MTT cytotoxicity assay, IMR-90 fibroblasts; type: cell-based; conditions: exposure time 96 h, mean ± SD
Description: (§1) CH1/PA-1 (ovarian teratocarcinoma), SW480 (colon carcinoma) and A549 (non-small cell lung cancer) cells were maintained as described in the reference. IMR-90 human fetal lung fibroblasts (from the European Collection of Authenticated Cell Cultures, Porton Down, Salisbury, UK) were cultured in Stable Cell^TM DMEM/F12 supplemented with 0.01 mg/mL human recombinant insulin (both purchased from Sigma-Aldrich) and 10% fetal bovine serum (FBS, BioWest, Nuaillé, France). Human colon carcinoma cell lines HCT116 and HT29 (both kindly provided by the Institute of Cancer Research, Department of Medicine I, Medical University of Vienna, Austria) were cultured in McCoy’s 5a medium supplemented with 4 mM L-glutamine (both purchased from Sigma-Aldrich) and 10% FBS. MCF-7 human breast adenocarcinoma cells (kindly provided by M. Ogris, Department of Pharmaceutical Sciences, University of Vienna, Austria) were maintained in DMEM (high glucose) supplemented with 4 mM L-glutamine, 0.1 mg/mL human insulin (all purchased from Sigma-Aldrich) and 10% FBS. All cell lines were grown as monolayers in 75 cm^2 culture flasks (CytoOne, Starlab, Hamburg, Germany) at 37 °C in a humidified atmosphere containing 5% CO2.
(§2) Exponentially growing cells were plated into 96-well microculture plates (CytoOne, tissue culture treated, Starlab, Hamburg, Germany) in densities of 1 × 10^3 CH1/PA-1, 2 × 10^3 SW480, 3 × 10^3 A549 and 7 × 10^3 IMR-90 cells per well (each in 100 µL). After a 24 h preincubation, drugs were added in serial dilution to give a final volume of 200 µL/well and exposed for 96 h. At the end of the exposure, the drug solutions were replaced by 100 µL RPMI 1640/MTT mixture (7:1 ratio). MTT (3-(4,5-dimethylthiazol-2-yl)-2,5-diphenyl-2H-tetrazolium bromide), (Acros Organics, Geel, Belgium) solution was prepared in phosphate-buffered saline (5 mg/mL) and mixed with RPMI1640 medium supplemented with 4 mM L-glutamine (both from Sigma-Aldrich) and 10% FBS. After 4 h incubation, the formazan crystals were solubilized in 150 µL of DMSO per well. Absorbance was measured at 550 nm (and at 690 nm as a reference) with a microplate reader (ELx808, BioTek, Winoosky, VT, USA) and Gen5^TM 3.08 software (BioTek). The 50% inhibitory concentrations (IC50) relative to untreated controls were interpolated from concentration-effect curves. At least three biologically and technically independent experiments were performed.

[3] = tested on: A549 (non-small cell lung carcinoma) cells; conditions: MTT assay, 96 h; cited from earlier work
[4] = tested on: CH1/PA-1 (ovarian teratocarcinoma) cells; conditions: MTT assay, 96 h; cited from earlier work
[5] = tested on: A549 (non-small cell lung carcinoma) cells; assay: MTT cytotoxicity assay, A549 monolayer; type: cell-based, human
Description: as §1, §2

MCF-7 cells [6] = assay: Resazurin assay, MCF-7 2D monolayer; type: cell-based, human; conditions: 96 h
Description: as §1
(§3) For the resazurin assay in monolayer cultures, cells were seeded into 96-well microculture plates (CytoOne, tissue culture treated, Starlab, Hamburg, Germany) in densities of 2 × 10^3 HCT116, 2 × 10^3 HT29 and 4 × 10^3 MCF-7 cells per well (each in 100 µL). For tests in 3D cultures, spheroids were grown as described above. After 24 h (for monolayers) or 4 days (for spheroids) the test compounds in the appropriate medium were added in serial dilution to the plates to obtain a total volume of 200 µL/well. Wells without cells, containing medium and resazurin (Alfa Aesar, Thermo Fisher, Kandel, Germany) solution were used as blanks. After 96 h exposure 20 µL of the resazurin solution (440 µM) were added to each well, followed by a 4 h (2D) or 12 h (3D) incubation period. Resorufin fluorescence was quantified at 530 nm (and a reference wavelength of 620 nm) by using a microplate reader (Synergy HT, BioTek) with Gen5^TM 3.10 software (BioTek).

MCF-7 cells [7] = assay: Annexin V-FITC/PI apoptosis assay, MCF-7; conditions: MCF-7, 24 h, 200 µM
[8] = Solubility in PBS (1% DMSO); type: physicochemical
Description: Stock solutions in DMSO of compounds 1–10 were utilized to determine the solubility in PBS by adding 1 vol% of the stock solution to a suitable amount of PBS. […] UV/Vis data were recorded on a Perkin Elmer Lambda 650 UV/Vis Spectrophotometer with a Peltier element for temperature control.

[9] = tested on: HT29 multicellular tumor spheroids; assay: Resazurin assay, HT29 3D spheroids; type: cell-based, human; conditions: 96 h, spheroids
Description: as §1
(§4) For growing multicellular tumor spheroids, 400 HCT116, 400 HT29 or 800 MCF-7 cells per well were plated into round-bottom ultra-low attachment 96-well plates (Corning, Glendale, AZ, USA) in the media described above and incubated at 37 °C for 96 h. Spheroids were treated with 10 µM of the two most cytotoxic compounds 3 and 4 for another 96 h. The diameters of the spheroids were measured with Cell^F software under a CKX41 Olympus microscope before treatment and in constant daily intervals over the 96 h treatment period. For statistical analysis the t-test with Welsh’s correction was implemented in GraphPad Prism software (Version 6.01).
as §3

[10] = tested on: HCT116, HT29 and MCF-7 cell lines; assay: ROS detection (DCFH-DA assay); type: cell-based, human; conditions: 2, 20, 100 and 200 µM, 2 h
Description: Reactive oxygen species (ROS) generation was measured by means of the DCFH-DA assay. […] On the following day, cells were washed with 200 µL Hanks’ balanced salt solution (HBSS, Sigma-Aldrich, containing 1% FBS) and stained with 100 µL of 25 µM DCFH-DA (2′,7′-dichlorofluorescein diacetate, Sigma-Aldrich) in HBSS (containing 1% FBS) for 45 min at 37 °C in the dark. After the incubation period, cells were washed with 200 µL HBSS (1% FBS) and loaded with compounds at concentrations of 2 µM, 20 µM, 100 µM and 200 µM in 200 µL phenol-red-free MEM (1% FBS) in triplicates. As positive controls, cells were treated with 200 µM and 400 µM tert-butylhydroperoxide (Sigma-Aldrich). Wells containing only phenol-red-free medium with 1% FBS were used as blanks, and non-drug treated, cell containing wells as reference values. Fluorescence (excitation: 485/20 nm, emission: 516/20 nm) was recorded in 10 min intervals with the Synergy HT reader (BioTek) over 2 h.

[11] = tested on: MCF-7 multicellular tumor spheroids; assay: Resazurin assay, MCF-7 3D spheroids; type: cell-based, human; conditions: 96 h, spheroids
Description: as §1, §4, §3

HCT116 cells [12] = assay: Resazurin assay, HCT116 2D monolayer; type: cell-based, human; conditions: 96 h
Description: as §1, §3

[13] = tested on: HCT116 multicellular tumor spheroids; assay: Resazurin assay, HCT116 3D spheroids; type: cell-based, human; conditions: 96 h, spheroids
Description: as §1, §4, §3

HCT116 cells [14] = assay: Annexin V-FITC/PI apoptosis assay, HCT116; type: cell-based, human; conditions: HCT116, 24 h, 200 µM
[15] = tested on: SW480 (colon carcinoma) cells; assay: MTT cytotoxicity assay, SW480 monolayer; type: cell-based, human
Description: as §1, §2

HT29 cells [16] = assay: Resazurin assay, HT29 2D monolayer; type: cell-based, human; conditions: 96 h
Description: as §1, §3

[17] = tested on: CH1/PA-1 (ovarian teratocarcinoma) cells; assay: MTT cytotoxicity assay, CH1/PA-1 monolayer; type: cell-based, human; conditions: exposure time 96 h, mean ± SD
Description: as §1, §2

HT29 cells [18] = assay: Annexin V-FITC/PI apoptosis assay, HT29; conditions: HT29, 24 h, 200 µM

N.N.[Cl][Pt][Cl] [Cisplatin]
IC50 [1]: 2.3 ± 0.2 µM | IC50 [2]: 14 ± 1 µM | IC50 [3]: 3.8 ± 1 µM | IC50 [4]: 0.073 ± 0.001 µM

Cc1occc(=O)c1[O-].[Cl-].[W+4].c1cc[cH-]c1.c1cc[cH-]c1 [Compound 1A, Bis(η^5-cyclopentadienyl)[2-methyl-3-(oxo-κO)-4-(1H)-pyran-4-ato-κO]tungsten(IV) chloride]
activity in A549 ([5]; 96 h): no activity was observed | IC50 ([5]; exposure time 96 h, mean ± SD): > 200 µM | IC50 (MCF-7 cells [6]): > 200 µM | early apoptotic cells [%] AV+ / PI- (MCF-7 cells [7]): 1.1 ± 0.6% | late apoptotic cells [%] AV+ / PI+ (MCF-7 cells [7]): 3.2 ± 1.3% | necrotic cells [%] AV- / PI+ (MCF-7 cells [7]): 2.3 ± 0.5% | viable cells [%] AV- / PI- (MCF-7 cells [7]): 94.3 ± 2.3% | ∑apoptotic cells [%] (MCF-7 cells [7]; sum of early and late): 4.3% | Solubility in PBS (1% DMSO) [8]: 5000 µg/mL | IC50 [9]: > 200 µM | intracellular ROS levels [10]: Pronounced elevation of ROS levels | IC50 [11]: > 200 µM | IC50 (HCT116 cells [12]): > 200 µM | IC50 [13]: > 200 µM | early apoptotic cells [%] AV+ / PI- (HCT116 cells [14]): 5.6 ± 2.1% | late apoptotic cells [%] AV+ / PI+ (HCT116 cells [14]): 16.1 ± 4.6% | necrotic cells [%] AV- / PI+ (HCT116 cells [14]): 3.8 ± 2.1% | viable cells [%] AV- / PI- (HCT116 cells [14]): 74.5 ± 7.0% | ∑apoptotic cells [%] (HCT116 cells [14]; sum of early and late): 21.7% | activity in SW480 ([15]; 96 h): no activity was observed | IC50 ([15]; exposure time 96 h, mean ± SD): > 200 µM | IC50 (HT29 cells [16]): > 200 µM | IC50 [17]: 147 ± 18 µM | early apoptotic cells [%] AV+ / PI- (HT29 cells [18]): 3.5 ± 2.5% | late apoptotic cells [%] AV+ / PI+ (HT29 cells [18]): 4.3 ± 0.9% | necrotic cells [%] AV- / PI+ (HT29 cells [18]): 4.4 ± 4.8% | viable cells [%] AV- / PI- (HT29 cells [18]): 87.8 ± 4.0% | ∑apoptotic cells [%] (HT29 cells [18]; sum of early and late): 7.8%
